Tests used:
[1] = system: gastric pH; test: Threshold level modeling: effect compartment / sigmoid Emax PK-PD model of intragastric pH versus lansoprazole concentration after single intravenous doses; type: in vivo, humans; settings: effect compartment concentration (assumed same as plasma concentration at steady-state), fasting, FIG. 1
Source text: Plasma concentration data obtained following administration of single intravenous doses of lansoprazole in humans was modeled to establish threshold concentrations above which a PPI is effective. Initially, gastric pH measured over the five hours post dosing (under fasting conditions) was plotted as a function of plasma concentration. However, no direct relationship between the gastric pH and the drug's plasma concentration could be established. […] An effect compartment model was then used in an attempt to delineate a useful relationship between drug concentration and effect. Accordingly, a model was proposed where a PK compartment was linked to a separate effect compartment. […] Using the same intravenous data, the pharmacological effect was modeled using sigmoid Emax model and PK was modeled using the two compartment model. The modeling first established the pharmacokinetic characteristics of lansoprazole, then the relationship between drug plasma concentration and intragastric pH was established, and pharacodynamic parameter estimates were obtained. The modeling provided the graph shown in FIG. 1 where the effect compartment concentration (assumed to be the same as the plasma concentration at steady-state) is on the x-axis and gastric pH on the y-axis. […]

[2] = Site of absorption study (Phase 1, remote control capsule, segmental absorption and pharmacokinetics); type: in vivo, human; settings: 30 mg powder with sodium bicarbonate released via remote control capsule; healthy adult males
Source text: This was a Phase 1, open-label, non-randomized, four-period, single-dose, crossover study in 8 healthy adult males. […] Upon receiving a remote signal during Periods 1, 2, and 3, the capsule released it's contents in the pre-designated site within the GI tract (see table 1 below).
Indium-111 chloride (^111 In-chloride) was used as the radioactive marker in the test formulation that was filled into remote control capsule. Each subject also received a second radioisotope, technetium-99m DTPA (^99mTc-DTPA), in the water used to swallow the InteliSite Companion capsule. Since the radioisotopes are not absorbed, progress of the formulation through the GI tract was monitored using a gamma camera that captures images at frequent intervals after ingestion of the dose. The radioisotope in the water outlined or “mapped” the GI tract to delineate the targeted site of drug release. […]
The relative bioavailability of lansoprazole delivered to the proximal small intestine, distal small intestine, or colon compared to the delayed release lansoprazole capsule was calculated as the ratios of AUC∞ for different GI regions to that of the delayed release capsule. In addition, the relative bioavailability of lansoprazole delivered to the distal small intestine and colon compared to the proximal small intestine was calculated.

extent of absorption when directly delivered to the colon [2]: reduced
Structure (SMILES): Cc1c(OCC(F)(F)F)ccnc1C[S+]([O-])c1nc2ccccc2[nH]1 (stereo not shown) [lansoprazole]
concentration above which the effect on gastric pH levels off [1]: ~450 ng/ml
threshold concentration above which the effect of the drug (rise of gastric pH above baseline) begins [1]: approximately 100 ng/ml
rate and extent of absorption from the distal small intestine versus proximal intestine [2]: less than those obtained for the proximal intestine, although the absorptions were comparable
